Read-outs that look alike come from different tables or passages of the source.
Assays:
ABL2 = ABL2 (Homo sapiens, UniProt P42684); details: 1 µM; binder
CLK1 = CLK1 (Homo sapiens, UniProt P49759); details: 1 µM; binder
PIK3C2G = PIK3C2G (Homo sapiens, UniProt O75747); details: 1 µM; binder
CDK19 = CDK19 (Homo sapiens, UniProt Q9BWU1); details: 1 µM; binder
FLT3(D835H) = FLT3(D835H) (Homo sapiens, UniProt P36888, D835H); details: 1 µM; binder
JAK1 = JAK1 (Homo sapiens, UniProt P23458); details: binder
Sequence of JAK1 (P23458 whole entry): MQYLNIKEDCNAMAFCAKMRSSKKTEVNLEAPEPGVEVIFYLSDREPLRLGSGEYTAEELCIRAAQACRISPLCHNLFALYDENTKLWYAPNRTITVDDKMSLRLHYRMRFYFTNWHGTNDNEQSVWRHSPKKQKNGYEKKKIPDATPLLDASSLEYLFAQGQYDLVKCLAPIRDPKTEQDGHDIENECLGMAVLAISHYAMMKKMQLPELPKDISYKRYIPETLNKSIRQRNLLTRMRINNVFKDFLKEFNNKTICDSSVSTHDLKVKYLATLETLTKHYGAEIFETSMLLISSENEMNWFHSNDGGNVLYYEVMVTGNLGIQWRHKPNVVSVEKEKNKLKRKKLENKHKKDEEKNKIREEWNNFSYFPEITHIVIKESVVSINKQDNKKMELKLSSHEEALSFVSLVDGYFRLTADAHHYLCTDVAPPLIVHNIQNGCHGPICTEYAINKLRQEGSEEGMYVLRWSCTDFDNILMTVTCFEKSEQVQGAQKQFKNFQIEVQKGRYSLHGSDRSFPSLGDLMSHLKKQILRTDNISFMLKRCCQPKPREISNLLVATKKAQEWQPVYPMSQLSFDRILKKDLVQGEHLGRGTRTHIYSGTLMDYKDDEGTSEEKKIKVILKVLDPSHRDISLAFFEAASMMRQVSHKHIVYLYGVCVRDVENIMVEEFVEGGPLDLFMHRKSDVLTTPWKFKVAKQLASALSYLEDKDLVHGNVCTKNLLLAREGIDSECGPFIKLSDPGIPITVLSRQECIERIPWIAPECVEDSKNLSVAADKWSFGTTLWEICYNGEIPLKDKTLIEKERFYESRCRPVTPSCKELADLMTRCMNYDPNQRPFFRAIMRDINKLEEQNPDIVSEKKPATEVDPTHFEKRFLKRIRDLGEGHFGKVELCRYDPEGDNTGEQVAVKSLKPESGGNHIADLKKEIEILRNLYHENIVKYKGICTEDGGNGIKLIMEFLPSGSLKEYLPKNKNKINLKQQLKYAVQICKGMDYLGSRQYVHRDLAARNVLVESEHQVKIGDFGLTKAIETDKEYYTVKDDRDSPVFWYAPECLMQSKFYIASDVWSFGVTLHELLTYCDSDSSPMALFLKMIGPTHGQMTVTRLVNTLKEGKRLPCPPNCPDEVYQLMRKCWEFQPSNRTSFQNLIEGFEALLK

p38-beta = p38-beta (Homo sapiens, UniProt Q15759); details: 1 µM; binder
GSK3A = GSK3A (Homo sapiens, UniProt P49840); details: 1 µM; binder
Sequence of GSK3A (P49840 whole entry): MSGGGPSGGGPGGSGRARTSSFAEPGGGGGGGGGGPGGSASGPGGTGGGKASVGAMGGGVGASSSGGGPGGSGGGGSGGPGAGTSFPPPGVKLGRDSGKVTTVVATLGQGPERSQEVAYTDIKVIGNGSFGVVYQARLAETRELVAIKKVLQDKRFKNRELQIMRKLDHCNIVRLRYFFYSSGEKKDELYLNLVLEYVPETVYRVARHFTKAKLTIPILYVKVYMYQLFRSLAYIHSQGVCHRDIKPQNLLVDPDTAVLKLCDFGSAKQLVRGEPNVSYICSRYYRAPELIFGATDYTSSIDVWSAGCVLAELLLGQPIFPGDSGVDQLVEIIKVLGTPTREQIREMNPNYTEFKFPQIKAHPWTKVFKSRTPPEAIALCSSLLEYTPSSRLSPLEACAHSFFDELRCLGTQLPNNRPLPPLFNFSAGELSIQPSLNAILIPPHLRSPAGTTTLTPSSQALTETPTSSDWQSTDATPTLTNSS

CSNK1G1 = CSNK1G1 (Homo sapiens, UniProt Q9HCP0); details: 1 µM; binder
CDC2L2 = CDC2L2 (Homo sapiens, UniProt Q9UQ88); details: 1 µM; binder
PIM1 = PIM1 (Homo sapiens, UniProt P11309); details: 1 µM; binder
CDK7 = CDK7 (Homo sapiens, UniProt P50613); details: 1 µM; binder
Sequence of CDK7 (P50613 whole entry): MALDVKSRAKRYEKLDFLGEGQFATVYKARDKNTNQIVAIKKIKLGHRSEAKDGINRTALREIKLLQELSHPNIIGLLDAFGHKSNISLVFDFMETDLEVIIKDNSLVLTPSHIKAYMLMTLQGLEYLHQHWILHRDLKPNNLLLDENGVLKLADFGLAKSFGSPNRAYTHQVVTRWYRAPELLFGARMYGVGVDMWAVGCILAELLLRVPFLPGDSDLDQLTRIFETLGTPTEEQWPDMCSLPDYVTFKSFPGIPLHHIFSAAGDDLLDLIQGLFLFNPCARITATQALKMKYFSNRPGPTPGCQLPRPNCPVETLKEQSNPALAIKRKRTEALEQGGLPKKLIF

DYRK2 = DYRK2 (Homo sapiens, UniProt Q92630); details: 1 µM; binder
Sequence of DYRK2 (Q92630 whole entry): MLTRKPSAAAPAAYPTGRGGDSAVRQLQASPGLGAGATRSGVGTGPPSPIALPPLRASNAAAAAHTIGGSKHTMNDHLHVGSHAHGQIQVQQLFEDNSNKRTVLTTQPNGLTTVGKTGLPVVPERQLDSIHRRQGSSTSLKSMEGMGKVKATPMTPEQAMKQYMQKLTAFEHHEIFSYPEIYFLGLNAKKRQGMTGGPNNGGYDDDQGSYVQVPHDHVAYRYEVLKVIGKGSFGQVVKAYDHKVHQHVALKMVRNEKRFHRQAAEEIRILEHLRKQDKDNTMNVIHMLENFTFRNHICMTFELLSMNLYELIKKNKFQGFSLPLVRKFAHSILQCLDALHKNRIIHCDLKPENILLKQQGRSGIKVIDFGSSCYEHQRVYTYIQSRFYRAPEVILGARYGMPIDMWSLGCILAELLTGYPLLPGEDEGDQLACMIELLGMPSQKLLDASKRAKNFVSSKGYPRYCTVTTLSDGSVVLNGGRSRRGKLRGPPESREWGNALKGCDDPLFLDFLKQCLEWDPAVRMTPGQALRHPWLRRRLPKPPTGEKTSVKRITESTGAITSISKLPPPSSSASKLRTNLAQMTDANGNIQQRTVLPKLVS

KIT(V559D,T670I) = KIT(V559D,T670I) (Homo sapiens, UniProt P10721, T670I/V559D); details: 1 µM; binder
Sequence of KIT(V559D,T670I) (P10721 whole entry V559D/T670I): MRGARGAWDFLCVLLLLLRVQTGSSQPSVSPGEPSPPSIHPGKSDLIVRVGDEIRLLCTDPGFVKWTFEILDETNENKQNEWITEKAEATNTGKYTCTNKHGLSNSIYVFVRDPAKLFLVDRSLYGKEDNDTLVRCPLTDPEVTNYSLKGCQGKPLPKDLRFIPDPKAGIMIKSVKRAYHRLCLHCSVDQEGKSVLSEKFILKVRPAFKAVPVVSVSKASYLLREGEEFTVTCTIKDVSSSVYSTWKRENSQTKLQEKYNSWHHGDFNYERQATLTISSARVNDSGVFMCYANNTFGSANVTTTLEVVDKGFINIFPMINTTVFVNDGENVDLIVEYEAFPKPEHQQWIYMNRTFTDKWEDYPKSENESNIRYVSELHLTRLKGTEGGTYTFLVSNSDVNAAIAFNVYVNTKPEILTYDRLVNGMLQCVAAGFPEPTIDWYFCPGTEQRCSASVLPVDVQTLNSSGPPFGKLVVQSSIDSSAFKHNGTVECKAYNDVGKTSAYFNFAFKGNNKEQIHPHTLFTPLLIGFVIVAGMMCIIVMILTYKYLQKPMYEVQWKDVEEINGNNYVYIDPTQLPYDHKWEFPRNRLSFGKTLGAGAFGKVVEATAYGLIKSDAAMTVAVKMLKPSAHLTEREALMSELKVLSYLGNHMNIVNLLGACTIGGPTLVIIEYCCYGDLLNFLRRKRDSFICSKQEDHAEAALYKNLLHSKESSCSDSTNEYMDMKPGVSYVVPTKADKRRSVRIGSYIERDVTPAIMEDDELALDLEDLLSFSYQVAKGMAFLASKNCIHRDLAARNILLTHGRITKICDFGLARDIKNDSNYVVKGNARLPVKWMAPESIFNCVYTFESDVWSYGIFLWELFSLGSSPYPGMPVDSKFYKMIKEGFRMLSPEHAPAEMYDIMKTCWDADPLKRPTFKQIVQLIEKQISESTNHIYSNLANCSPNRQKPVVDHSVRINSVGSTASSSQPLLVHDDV

CLK2 = CLK2 (Homo sapiens, UniProt P49760); details: 1 µM; binder
ULK1 = ULK1 (Homo sapiens, UniProt O75385); details: 1 µM; binder
EPHA4 = EPHA4 (Homo sapiens, UniProt P54764); details: 1 µM; binder
Sequence of EPHA4 (P54764 whole entry): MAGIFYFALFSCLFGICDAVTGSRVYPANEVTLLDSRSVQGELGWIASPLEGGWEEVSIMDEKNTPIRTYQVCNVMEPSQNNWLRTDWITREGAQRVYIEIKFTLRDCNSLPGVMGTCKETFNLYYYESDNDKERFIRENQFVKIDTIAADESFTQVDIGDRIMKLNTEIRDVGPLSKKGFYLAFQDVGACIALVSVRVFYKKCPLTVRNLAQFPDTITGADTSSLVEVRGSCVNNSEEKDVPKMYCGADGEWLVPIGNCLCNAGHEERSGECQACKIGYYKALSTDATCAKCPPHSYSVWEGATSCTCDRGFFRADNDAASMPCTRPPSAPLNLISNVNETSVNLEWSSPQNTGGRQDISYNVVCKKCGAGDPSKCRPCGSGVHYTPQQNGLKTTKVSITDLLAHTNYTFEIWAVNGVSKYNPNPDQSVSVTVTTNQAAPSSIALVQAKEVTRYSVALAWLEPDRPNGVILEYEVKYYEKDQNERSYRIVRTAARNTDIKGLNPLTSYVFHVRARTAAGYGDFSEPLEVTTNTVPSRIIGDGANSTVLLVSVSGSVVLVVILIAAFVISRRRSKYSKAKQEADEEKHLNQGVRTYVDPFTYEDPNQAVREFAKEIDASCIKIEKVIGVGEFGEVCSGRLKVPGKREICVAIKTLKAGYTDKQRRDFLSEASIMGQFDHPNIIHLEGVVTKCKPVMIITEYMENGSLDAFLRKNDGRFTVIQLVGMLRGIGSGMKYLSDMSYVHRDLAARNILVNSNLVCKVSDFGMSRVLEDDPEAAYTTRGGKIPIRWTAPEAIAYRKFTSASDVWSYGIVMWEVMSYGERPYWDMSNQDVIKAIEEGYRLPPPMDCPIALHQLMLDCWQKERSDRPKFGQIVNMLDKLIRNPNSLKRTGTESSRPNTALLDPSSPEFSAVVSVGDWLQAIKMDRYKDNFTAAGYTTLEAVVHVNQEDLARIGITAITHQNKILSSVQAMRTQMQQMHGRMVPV

EPHB1 = EPHB1 (Homo sapiens, UniProt P54762); details: 1 µM; binder
MKNK1 = MKNK1 (Homo sapiens, UniProt Q9BUB5); details: 1 µM; binder
Sequence of MKNK1 (Q9BUB5 whole entry): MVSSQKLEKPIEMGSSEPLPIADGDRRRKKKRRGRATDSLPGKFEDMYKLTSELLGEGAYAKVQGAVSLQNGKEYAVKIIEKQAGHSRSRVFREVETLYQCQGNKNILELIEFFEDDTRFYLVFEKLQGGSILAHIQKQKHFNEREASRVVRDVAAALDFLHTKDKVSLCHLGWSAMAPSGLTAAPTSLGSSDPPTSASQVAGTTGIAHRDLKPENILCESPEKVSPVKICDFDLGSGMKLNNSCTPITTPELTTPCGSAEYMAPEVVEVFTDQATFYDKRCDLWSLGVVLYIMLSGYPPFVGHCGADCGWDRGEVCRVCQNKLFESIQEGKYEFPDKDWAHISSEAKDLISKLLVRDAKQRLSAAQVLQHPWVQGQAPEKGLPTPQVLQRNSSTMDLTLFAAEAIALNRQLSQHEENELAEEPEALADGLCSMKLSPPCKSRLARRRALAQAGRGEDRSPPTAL

MET(Y1235D) = MET(Y1235D) (Homo sapiens, UniProt P08581, Y1235D); details: 1 µM; binder
RAF1 = RAF1 (Homo sapiens, UniProt P04049); details: 1 µM; binder
PRKD1 = PRKD1 (Homo sapiens, UniProt Q15139); details: 1 µM; binder
MEK2 = MEK2 (Homo sapiens, UniProt P36507); details: 1 µM; binder
NEK1 = NEK1 (Homo sapiens, UniProt Q96PY6); details: 1 µM; binder
STK35 = STK35 (Homo sapiens, UniProt Q8TDR2); details: 1 µM; binder
ERK4 = ERK4 (Homo sapiens, UniProt P31152); details: 1 µM; binder
GAK = GAK (Homo sapiens, UniProt O14976); details: 1 µM; binder
STK39 = STK39 (Homo sapiens, UniProt Q9UEW8); details: 1 µM; binder
PFTK1 = PFTK1 (Homo sapiens, UniProt O94921); details: 1 µM; binder
PAK1 = PAK1 (Homo sapiens, UniProt Q13153); details: 1 µM; binder

## CNc1ncc2cc(-c3ccc(-c4cccc(C)n4)cc3Cl)c(=O)n(C[C@H]3OC[C@H](N)CO3)c2n1 [compound 6, G-5555]
ABL2
  Percent Control: 100%
CLK1
  Percent Control: 100%
PIK3C2G
  Percent Control: 100%
CDK19
  Percent Control: 100%
FLT3(D835H)
  Percent Control: 99%
JAK1; JH1 domain catalytic
  Percent Control: 100%
JAK1; JH2 domain pseudokinase, 1 µM
  Percent Control: 92%
p38-beta
  Percent Control: 100%
GSK3A
  Percent Control: 100%
CSNK1G1
  Percent Control: 100%
CDC2L2
  Percent Control: 100%
PIM1
  Percent Control: 100%
CDK7
  Percent Control: 86%
DYRK2
  Percent Control: 100%
KIT(V559D,T670I)
  Percent Control: 100%
CLK2
  Percent Control: 100%
ULK1
  Percent Control: 85%
EPHA4
  Percent Control: 100%
EPHB1
  Percent Control: 100%
MKNK1
  Percent Control: 100%
MET(Y1235D)
  Percent Control: 93%
RAF1
  Percent Control: 100%
PRKD1
  Percent Control: 17%
MEK2
  Percent Control: 1.4%
NEK1
  Percent Control: 100%
STK35
  Percent Control: 100%
ERK4
  Percent Control: 100%
GAK
  Percent Control: 1.7%
STK39
  Percent Control: 100%
PFTK1
  Percent Control: 100%
PAK1
  Percent Control: 4.5%
